Reference: patent US5421897A, “Abatement process for contaminants” (priority 1992, dated 1995)
Read-outs that look alike come from different tables or passages of the source.

Key:
[1] = C.A. 95:36562k; cited from earlier work
[2] = C.A. 98:100331a; cited from earlier work
man = conditions: cited from earlier work
dog = conditions: scu-dog; cited from earlier work
mus = conditions: scu-mus; cited from earlier work
[3] = 25° C.; cited from earlier work
gpg [4] = conditions: orl-gpg; cited from earlier work
[5] = C.A. 103:136646t; cited from earlier work
[6] = C.A. 101:205528d; cited from earlier work
[7] = Time required to form solid-state, sodium silicofluoride added to Neoprene 671 latex; assay type: physicochemical
Excerpt: If the overspray method is not preferred, an in-situ solidifying compound can be used that reduces the application process to a single step. To effect in-situ transformation from the liquid to the solid state, about 0.25 to about 6 parts of a solidifying compound such as ammonium silicofluoride, sodium silicofluoride, or potassium silicofluoride per hundred parts solid resin (phr) may be added to the liquid-state composition as a finely ground (e.g., ball milled) dispersion just prior to application.
The time required to form a solid-state will vary according to concentration of solidifying compound and polymer type. By way of example, when sodium silicofluoride was added to Neoprene 671 latex, the following results were attained.

[8] = C.A. 96:47119t, 101:189850v; cited from earlier work
[9] = C.A. 100:116031y; cited from earlier work
gpg [10] = test: Oral toxicity orl-gpg LDLo (lead toxicity mitigation); conditions: transformation of lead oxide to lead sulfide
[11] = Copper oxide cleaning (Example 5), painted cinder block; conditions: weight loss
Procedure: Samples of coarse, deep pore cinder block (2×2×1/2 inch) were sealed by spray applying a 4-7 mil wet film thickness coating of interior, semigloss alkyd paint. The coated samples were air dried at ambient temperature for 7 days and subsequently cured at 150° F. for 8 hours. A 5% dispersion of copper oxide in hexane was spray applied until the dry copper oxide up-take reached approximately 250 mg/sample. After spraying, the samples were allowed to dry at ambient temperature for 24 hours, whereupon 20-25 wet mils of the liquid-state composition were spray applied over the contaminated surfaces. After 10 minutes, the liquid-statecomposition was scrubbed into the surface using the circular action of a nylon dental brush. After 20 scrub cycles, the brush was removed, and an additional 25-30 mils wet film thickness of liquid-state composition were spray applied over the treated area. After drying for 24 hours at ambient temperature, the solid-state matrix was removed and the reverse side was inspected. […] The larger matrix projections reached 0.6 to 0.9 mm in length. […] A subtle discoloration of the white alkyd paint (graying) was noted. Weight-loss measurements indicated 78% removal of CuO. […]

[12] = Sax, 6th Ed., P. 347; cited from earlier work

Question: Which “antidotal activity for antimony” value [1] does the source give for `O=C(O)C(S)C(S)C(=O)O` (centres unmarked) [2,3-dimercaptosuccinic acid] here?
Answer: provides antidotal activity for antimony

Question: Which “spray-on reagent for identification of arsenic III” value [2] does the source give for `O=Cc1ccc(O)cc1O` [2,4-dihydroxybenzaldehyde] here?
Answer: useful as a spray-on reagent for the identification of arsenic III

Question: Which LDLo (man; unk.-man) does the source give for `[Sb]` [Antimony] here?
Answer: 15 mg/kg

Question: For `[Ba]` [Barium], which LDLo (man; orl-hmm) is on record?
Answer: 11.4 mg/kg

Question: For `[Cd]` [Cadmium], which TCLo (man; inhl-man) is on record?
Answer: 40 μg/m^3

Question: For `[Cr]` [Chromium], which LDLo (dog) is on record?
Answer: 330 mg/kg

Question: For `[Cu]` [Copper], which TDLo (man; orl-hmn) is on record?
Answer: 0.12 mg/kg

Question: With `C=O` [Formaldehyde] as the molecule, how does the LD50 (mus) read?
Answer: 300 mg/kg

Question: What about the toxicity grade (mus) of the same molecule?
Answer: Severe toxicity

Question: What about the Vapor pressure [3] of the same molecule?
Answer: 0.187 kPa

Question: With `[Cl][Pb][Cl]` [Lead chloride] as the molecule, how does the LDLo (gpg [4]) read?
Answer: 2000 mg/kg

Question: Which “antidotal activity for chromium” value [5] does the source give for `O=C(O)CN(CC(=O)O)CC(=O)O` [N,N-bis(carboxymethyl)glycine] here?
Answer: provides antidotal activity for chromium

Question: Which “antidotal activity for sodium arcenate” value [6] does the source give for `O=C(O)c1ccccc1C(=O)NCC(S)CS` (centres unmarked) [N-(2,3-dimercaptopropyl)phthalamidic acid] here?
Answer: provides antidotal activity for sodium arcenate

Question: Which “Time Required to Form Solid-State” value ([7]; 2 phr added to Neoprene 671 latex) does the source give for `F[Si-2](F)(F)(F)(F)F.[Na+].[Na+]` [Sodium Silicofluoride, sodium silicofluoride] here?
Answer: 150 min

Question: What about the “Time Required to Form Solid-State” value ([7]; 2.5 phr added to Neoprene 671 latex) of the same molecule?
Answer: 18 min

Question: And the “Time Required to Form Solid-State” value ([7]; 3 phr added to Neoprene 671 latex)?
Answer: 7 min

Question: And the “Time Required to Form Solid-State” value ([7]; 4 phr added to Neoprene 671 latex)?
Answer: 5 min

Question: For `O=P(O)(O)O[C@H]1[C@H](OP(=O)(O)O)[C@@H](OP(=O)(O)O)[C@H](OP(=O)(O)O)[C@@H](OP(=O)(O)O)[C@H]1OP(=O)(O)O` [Sodium phytate], which antidotal activity [8] is on record?
Answer: provides antidotal activity

Question: Which “antidotal activity for copper” value [9] does the source give for `[SH-].[SH-].[S]=[Mo]=[S]` [Tetrathiomolybdate (VI)] here?
Answer: provides antidotal activity for copper

Question: Which Symptoms (man; in vivo) does the source give for `O=C([O-])[O-].O=C([O-])[O-].[OH-].[OH-].[Pb+2].[Pb+2].[Pb+2]` [White lead] here?
Answer: Same as lead halides

Question: What about the TDLo (man; orl-man) of the same molecule?
Answer: 214 mg/kg

Question: What does the source list for `[S]=[Pb]` [lead sulfide]?
Answer: LDLo (gpg [4]): 10 gm/Kg; reduction in toxicity (gpg [10]): 10 fold

Question: Which “removal of CuO” value [11] does the source give for `O=P([O-])([O-])[O-].[Na+].[Na+].[Na+]` [trisodiumphosphate] here?
Answer: 55%

Question: Which acute toxicity [12] does the source give for Barium sulfate here?
Answer: not being acutely toxic

Question: Which LDLo (mus) does the source give for Formaldehyde Hydrosulfate here?
Answer: 3000 mg/kg

Question: And the toxicity grade (mus)?
Answer: Moderate toxicity

Question: What about the Vapor pressure [3] of the same molecule?
Answer: No vapor pressure

Question: Which LDLo (gpg [4]) does the source give for lead oxide here?
Answer: 1000 mg/kg
